# Measured values published in article PMC5326799, “Discovery of Compounds that Positively Modulate the High Affinity Choline Transporter” (Frontiers in Molecular Neuroscience, 2017).
# “Also recorded” adds a separate entry of the source. Where two headings read alike, the source gives them in different places.
# Tests used:
# [1] = target: T1, high affinity choline transporter (CHT) (Homo sapiens, UniProt Q9GZV3); assay: Radiometric [3H]Choline uptake assay (scintillation proximity) in HEK cells expressing CHT; assay type: cell-based; conditions: for CHT modulator classification in radiometric assay: single point 1 and 10 μM, actives in 10-point dose response; for 3H-choline uptake % effect 1 μM: 1 μM compound; for 3H-choline uptake % effect 1 μM / 3H-choline uptake % effect 10 μM: 100% = 10 μM Staurosporine, 0% = DMSO; for 3H-choline uptake % effect 10 μM: 10 μM compound
# T1 construct: expressed in transfected cells; host or cells: HEK-293, lentiviral transduction, single-cell clone CHT-WT4
# T1 sequence (Q9GZV3 1-580): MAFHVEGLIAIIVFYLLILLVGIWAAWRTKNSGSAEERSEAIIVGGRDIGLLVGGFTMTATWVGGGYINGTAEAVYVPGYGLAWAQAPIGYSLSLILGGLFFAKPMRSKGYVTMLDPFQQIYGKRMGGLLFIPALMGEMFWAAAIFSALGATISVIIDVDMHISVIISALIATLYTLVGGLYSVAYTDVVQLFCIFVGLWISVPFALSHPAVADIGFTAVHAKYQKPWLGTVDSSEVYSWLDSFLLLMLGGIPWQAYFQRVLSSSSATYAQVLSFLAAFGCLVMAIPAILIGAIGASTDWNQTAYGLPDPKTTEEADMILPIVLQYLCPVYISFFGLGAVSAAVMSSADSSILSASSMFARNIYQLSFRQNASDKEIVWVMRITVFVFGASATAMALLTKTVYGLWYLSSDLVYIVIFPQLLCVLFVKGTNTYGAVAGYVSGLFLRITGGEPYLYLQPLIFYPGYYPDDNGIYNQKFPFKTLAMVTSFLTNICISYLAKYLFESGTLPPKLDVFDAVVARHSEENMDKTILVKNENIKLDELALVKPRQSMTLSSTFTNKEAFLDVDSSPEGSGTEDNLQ
# Experimental: Uptake of [^3H]Choline (American Radiochemicals; ART 0197; 1,000 Ci/vial; Specific Activity 60–90 Ci/mmol) was measured in HEK cells expressing the high affinity choline transporter (CHT), clone WT4. Cells were plated at 50,000 cells /well in 200 μL culture media on a PDL coated Cytostar-T 96 well plate (Perkin Elmer) 24 h prior to assay. On the day of assay, following two washes and a 30 min pre-incubation at 37°C in 50 μL Na(−) free buffer (0.54 mM KCl, 1.3 mM CaCl2, 0.53 mM MgCl2, 0.4 mM MgSO4, 0.37 mM KH2PO4, 240 mM Sucrose, 4.4 mM Tris-phosphate, 5.5 mM Glycine, 5.6 mM D-Glucose; pH 6.5 with KOH), 25 μL 4X control or test compounds in Na(−) buffer were added to the cells. […] Final DMSO concentration was 0.25%. Following a 30 min incubation at 37°C, 25 μL [^3H]Choline diluted to 320 nM (80 nM final concentration) was added in Na(+) buffer (0.54 mM KCl, 1.3 mM CaCl2, 0.53 mM MgCl2, 0.4 mM MgSO4, 0.37 mM KH2PO4, 138 mM NaCl, 0.28 mM Na2HPO4, 5.5 mM Glycine, 5.6 mM D-Glucose; pH 6.5 with KOH). Plates were sealed with TopSeals (Perkin Elmer) and incubated in darkness for 3 h at room temperature before reading using a Wallac Microbeta, 1 min/well.
# (§1) A preponderance of literature precedent for measuring high affinity choline uptake (HACU) utilizes a radiometric assay to measure [^3H]Choline transport in preparations. […] A number of parameters were assessed in assay development including cell seeding density, time of assay post-seeding, plate coating, buffer composition, read time and choline concentration.
# CHT [2] = target: T2, CHT (Homo sapiens, UniProt Q9GZV3); conditions: for D9-choline uptake % effect 1 μM: 1 μM compound; for D9-choline uptake % effect 1 μM / D9-choline uptake % effect 10 μM: HEK293 CHT-WT4, DMSO negative control, 10 μM STS positive control; for D9-choline uptake % effect 10 μM: 10 μM compound
# T2 sequence (Q9GZV3 1-580): T1 sequence (Q9GZV3 1-580)
# CHT [3] = target: T2, CHT; assay: cell-based
# CHT [4] = target: T2, CHT; assay: Live cell anti-FLAG immunolabeling of CHT cell surface localization in CHT-WT4 cells; assay type: cell-based; design: expressed in transfected cells; host or cells: HEK-293, lentiviral transduction, single-cell clone CHT-WT4; conditions: 1 or 10 μM for 1 h, qualitative observations
# Experimental: Media was removed and cells were washed once with HBSS (+/+). 1 μg/mL Anti-FLAG antibody (F3165, Sigma) was diluted in HBSS (+/+) and added to the cellular monolayer for 30 mins. After incubation, cells were washed three times with HBSS (+/+) followed by incubation with 1:5,000 AF488 labeled secondary antibody (LifeTech) diluted in HBSS (+/+) for 30 min. After three washes, cells were fixed with 4% paraformaldehyde in HBSS (+/+) for 15 min. Nuclei were counterstained with the nuclear dye Hoechst. All images were captured and analyzed on an epifluorescent microsope or Cellomics platform.
# Thus, understanding compound effects on CHT density and activation state in the synaptic membrane may aid interpretation of the effects on cholinergic neurotransmission. Conventional methods such as cell surface biotinylation present challenges in terms of the requirement of large quantities of cells and low throughput. […] Our CHT overexpression construct contains a FLAG tag on the N-terminus which we sought to utilize with antibody detection in non-permeabilized cells. […] We proceeded to investigate the effect of compound treatment in more detail. Cells were incubated with compounds at 1 or 10 μM for 1 h before immunolabeling and visualization.
# [5] = target: high affinity choline transporter (CHT); design: method as in earlier work; conditions: ref Okuda and Haga, 2000, Okuda et al., cited from earlier work
# SH-SY5Y cell line = assay: [3H]Choline uptake in untransformed SH-SY5Y cell line; assay type: cell-based; conditions: 1 μM HC-3, 10 μM STS
# Text: (§2) Supplementary file Image1.JPEG: Supplementary Figure 1 [^3H] […] Click here for additional data file.
# [6] = target: T1, high affinity choline transporter (CHT); assay: Radiometric [3H]Choline uptake assay (scintillation proximity) in HEK cells expressing CHT; assay type: cell-based; conditions: HEK293, read-out: % inhibition of [3H]Choline uptake by HC-3, 1 μM
# CHT [7] = target: T2, CHT; assay: SURFE2R solid supported membrane (SSM) electrophysiology on CHT-WT4 membrane fragments; assay type: biochemical; design: expressed in transfected cells; host or cells: HEK-293, lentiviral transduction, single-cell clone CHT-WT4
# Experimental: A single cell clone of HEK293 overexpressing CHT (CHT-WT4) cells was used to generate membrane fragments to assess on the SURFE^2R platform. Cells were grown to 80% confluence and harvested. The membrane fraction was collected by ultracentrifugation and the plasma membranes were isolated by density gradient centrifugation (Schulz et al., [2008]).
# All experiments were performed on the SURFE^2R N1 device and the matching N1 sensor blanks (Nanion Technologies GmbH, Munich). The sensor blanks include a 3 mm diameter gold surface inside a small well coated by incubating 50 μL of 0.5 mM 1-octadecanethiol dissolved in isopropanol for 30 min, rinsed once with isopropanol and twice with water (ddH2O) and dried for 30 min at room temperature.
# 7.5 μg/μL DPhPC (Avanti Polar Lipids) was dissolved in n-Decane. 1.5 μL were added onto the thiol-coated gold surface. Immediately, 80 μL of potassium buffer was added carefully. The CHT membrane preparation was diluted 1:10 with potassium buffer and sonicated. Eight microliter were added directly onto the SSM by submerging the pipette into the buffer and the sensors were centrifuged for 30 min at 2,200 × g. The quality of the SSM was controlled by determination of conductance σ and capacitance C. The SURFE^2R N1 device includes default functions to perform these measurements. Sensors should have a conductance below 3 nS and capacitance below 20 nF.
# Prepared sensors were inserted into the faraday cage of the SURFE^2R N1 device and buffers applied via its automatic perfusion system, allowing rapid buffer exchange in a continuous liquid flow. The following buffer addition sequence was used for all experiments: Sodium buffer was applied for 2 s with a flow rate of 200 μl/s to establish a sodium gradient over the membrane. […] During those 6 s the current response was recorded. […]
# Raw data were exported as ASCII files, analysis was performed using the scientific graphing and data analysis program IGOR Pro 6 (WaveMetrics, Portland, USA). The evaluated peak currents were determined using a peak detection algorithm. […]
# SK-N-FI cell line = assay: [3H]Choline uptake in untransformed SK-N-FI cell line; assay type: cell-based; conditions: 1 μM HC-3, 10 μM STS
# Text: as §2
# SH-SY5Y cells = assay: Radiometric CHT transport in SH-SY5Y cell backgrounds; assay type: cell-based; conditions: potentiation could not be demonstrated
# Experimental: as §1
# [8] = EC50 estimate, [3H]Choline uptake (positive modulators), CHT-WT4 cells, 10-point dose response
# [9] = PAM compounds, 10-point dose response, HEK293 CHT-WT4, n.d. = not detected, read-out: 3H-choline uptake IC50 or EC50
# [10] = 3H-choline uptake IC50 or EC50(M), PAM compounds, 10-point dose response, HEK293 CHT-WT4, n.d. = not detected
# [11] = inhibitor/NAM compounds, 10-point dose response, HEK293 CHT-WT4, read-out: 3H-choline uptake IC50 or EC50
smiles,measurement,setting,value
O=C(CC1=CCCCC1)Nc1ccnc2ccccc12 [Compound 1],EC50,[1]; [8],3e-07 M
same,EC50,[1]; [9],2.75e-07 M
same,CHT modulator classification in radiometric assay,[1],positive allosteric CHT modulators
O=C(Cn1c(=O)oc2ccccc21)Nc1ccnc2ccccc12 [Compound 2],EC50,[1]; [8],4e-07 M
same,EC50,[1]; [9],4.16e-07 M
same,CHT modulator classification in radiometric assay,[1],positive allosteric CHT modulators
NC(=O)N1C(=O)C(C(=O)Cc2ccccc2)c2cc(F)ccc21 (centres unmarked) [Compound 3],EC50,[1]; [10],4.51e-06 M
same,EC50,[1]; [8],4.5e-06 M
same,CHT modulator classification in radiometric assay,[1],positive allosteric CHT modulators
O=C(NCc1ccc(Cl)cc1)c1ccc2snc(N3CCNCC3)c2c1 [Compound 4],D9-choline uptake % effect 1 μM,CHT [2],12.3%
same,D9-choline uptake % effect 10 μM,CHT [2],118.1%
same,IC50,[1]; [11],1540 nM
same,CHT modulator classification in radiometric assay,[1],negative allosteric modulators
same,IC50,CHT [3],3130 nM
O=C(NCc1ccc(Cl)cc1)c1cn2c(N3CCNCC3)nccc2n1 [Compound 5],IC50,[1]; [11],670 nM
same,CHT modulator classification in radiometric assay,[1],negative allosteric modulators
CNC(=O)C1CCCN1c1nc(Cc2ccccc2F)cc(Nc2cc(C3CC3)[nH]n2)n1 (centres unmarked) [Compound 6],Effect on cell surface localization of CHT,CHT [4],no effects; also recorded: no apparent effect
same,D9-choline uptake % effect 1 μM,CHT [2],60.8%
same,D9-choline uptake % effect 10 μM,CHT [2],91.6%
same,3H-choline uptake % effect 1 μM,[1]; HEK293 CHT-WT4,3.6%
same,3H-choline uptake % effect 10 μM,[1]; HEK293 CHT-WT4,23.6%
same,EC50,CHT [3],2050 nM
CNC(=O)C1CCC(Nc2nc(Nc3ccc(S(C)(=O)=O)cc3)ncc2C(F)(F)F)C1 (centres unmarked) [Compound 7],Effect on cell surface localization of CHT,CHT [4],no effects; also recorded: no apparent effect
same,D9-choline uptake % effect 1 μM,CHT [2],46.4%
same,D9-choline uptake % effect 10 μM,CHT [2],80.8%
same,3H-choline uptake % effect 1 μM,[1]; HEK293 CHT-WT4,−2.4%
same,3H-choline uptake % effect 10 μM,[1]; HEK293 CHT-WT4,26.7%
same,EC50,CHT [3],2490 nM
N#Cc1c[nH]c2ncnc(N3CCC4(CC3)CNCc3ccc(C(F)(F)F)nc34)c12 [Compound 8],Effect on cell surface localization of CHT,CHT [4],increased cell surface localization; also recorded: distinct increase in apparent cell surface localization
same,D9-choline uptake % effect 1 μM,CHT [2],24.5%
same,D9-choline uptake % effect 10 μM,CHT [2],80.2%
same,3H-choline uptake % effect 1 μM,[1]; HEK293 CHT-WT4,9.0%
same,3H-choline uptake % effect 10 μM,[1]; HEK293 CHT-WT4,52.6%
same,EC50,CHT [3],5100 nM
Cn1ncc2nc(-c3ccnc(N)c3)nc(N3CCNCC3(C)C)c21 [Compound 9],Effect on cell surface localization of CHT,CHT [4],increased cell surface localization; also recorded: distinct increase in apparent cell surface localization
same,D9-choline uptake % effect 1 μM,CHT [2],30.5%
same,D9-choline uptake % effect 10 μM,CHT [2],64.0%
same,3H-choline uptake % effect 1 μM,[1]; HEK293 CHT-WT4,24.4%
same,3H-choline uptake % effect 10 μM,[1]; HEK293 CHT-WT4,100.0%
same,EC50,CHT [3],5760 nM
"C[N+]1(C)CCOC(O)(c2ccc(-c3ccc(C4(O)C[N+](C)(C)CCO4)cc3)cc2)C1 (centres unmarked) [HC-3, hemicholinium-3, reference compound]",Ki,"[5]; Apparsundaram et al., 2001, read-out: Ki, inhibition of choline uptake",1 to 5 nM
same,Effect on [3H]Choline uptake,SH-SY5Y cell line,No effect
same,Effect on cell surface localization of CHT,CHT [4],increase in cell surface localization; also recorded: increase transporter density on the cell surface
same,IC50,[1],116 nM
same,inhibition at 1 µM,"[1]; HEK293, read-out: % inhibition of [3H]Choline uptake by HC-3, 1 μM, CHT-WT4 clone",~80%
same,inhibition at 1 µM,[6]; CHT-WT5 clone,~61%
same,inhibition at 1 µM,[6]; CHT-WT Pool,~69%
same,IC50,CHT [7],20.4 nM
same,Effect on [3H]Choline uptake,SK-N-FI cell line,No effect
same,IC50,CHT [3],5.6 nM
"Cc1oc2nc3c(c(NC(=O)CN4CCCC4=O)c2c1C)CCCC3 [MKC-231, coluracetam, reference compound]",Effect on cell surface localization of CHT,CHT [4],no apparent effect
same,Effect on D9-choline uptake,CHT [2]; 10-point dose response,no apparent effect
same,"Impact on CHT mediated transport, [3H]Choline uptake","[1]; CHT-WT4 cells, 10-point dose response",unable to see any impact
same,"Impact on CHT mediated transport, [3H]Choline uptake","[1]; CHT-WT4 cells, 10-point dose response, listed as MKC231",no apparent effect
same,Effect on CHT current (SURFE2R),CHT [7]; CHT-WT4 membrane preparations,not able to detect any effect
"COc1ccc(C(=O)NCc2cc(C(C)C)no2)cc1OC1CCN(C)CC1 [ML-352, reference compound]",Effect on cell surface localization of CHT,CHT [4],increase in cell surface localization; also recorded: increase transporter density on the cell surface
same,D9-choline uptake % effect 1 μM,CHT [2],96.3%
same,D9-choline uptake % effect 10 μM,CHT [2],104.1%
"CN[C@@H]1C[C@H]2O[C@@](C)([C@@H]1OC)n1c3ccccc3c3c4c(c5c6ccccc6n2c5c31)C(=O)NC4 [STS, staurosporine]",Effect on [3H]Choline uptake,SH-SY5Y cell line,No effect
same,EC50,[1]; [10],1.7e-06 M
same,Effect on [3H]Choline uptake,SK-N-FI cell line,No effect
same,EC50,CHT [3],507 nM
same,Potentiation of CHT transport in SH-SY5Y cell backgrounds,SH-SY5Y cells,toxicity
"C[N+](C)(C)CCO [choline, Choline Chloride]",Km,"[5]; Apparsundaram et al., 2001, read-out: Km, high-affinity sodium-dependent choline uptake",~2 µM
same,EC50,CHT [7],25000 nM
